Laboratory results: US7371734B2, “Oligonucleotide compositions and their use for the modulation of immune responses” (Bioniche Life Sciences Inc., priority 2002, dated 2008)
Marks after values point to notes of the source that are not given here.

What was measured:
Format in all cases: cell-based
Human dendritic cells [1] = assay: Increase in cell size and granularity of DC (flow cytometry); conditions: 100 μg polynucleotide, 48 hours
Protocol: (§1) Human dendritic cells were obtained from Clonetics (San Diego, Calif., USA) and were cultured in the medium recommended by Clonetics. DC were obtained from three different individuals (see Table 1). Major histocompatability typing was performed on each of these individuals and several of the HLA (human leukocyte antigens) types are shown.
DC were seeded in 1.0 ml at 1.0×10^5 cells/ml in 6-well flat-bottomed tissue culture plates for 48 hours with 100 μg of 6 base N1A, N1B, N2A, N2B, N3A, N3B, N4A, N4B, N5A, N5B, N6A, N6B, N7A or N7B polynucleotides. Cell size (FCS: forward side scatter) and granularity (S SC: side light scatter) were determined by flow cytometry using a FACSCalibur and analyzed using the CELLQuest Pro software (both from Becton-Dickinson, San Diego, Calif., USA). Percentage of DC showing a FCS>500 units and a SSC>400 units have been determined after treatment with 3-OH, 5-OH polynucleotides for DC isolated from three different individuals.

Human dendritic cells [2] = assay: CD86 levels at the DC cell surface (flow cytometry); conditions: 100 μg, 48 hours
Protocol: as §1
(§2) DC from individuals B and C were seeded in 1.0 ml at 1.0×10^5 cells/ml in 6-well flat-bottomed tissue culture plates for 48 hours with 100 μg of 6 base N1A, N1B, N2A, N2B, N3A, N3B, N4A, N4B, N5A, N5B, N6A, N6B, N7A or N7B polynucleotides. The level of CD86 at the cell surface was determined after 48 hours of incubation by flow cytometry using a PE-conjugated monoclonal antibody directed to CD86 (Serotec) and analyzed by CELLQuest Pro. Results are expressed as the percentage of CD86^hi DC following treatment.

Human dendritic cells [3] = assay: Induction of IL-1beta production by DC (ELISA); conditions: 100 μg, 48 hours
Protocol: as §1
DC were seeded in 1.0 ml at 1.0×10^5 cells/ml in 6-well flat-bottomed tissue culture plates for 48 hours with 100 μg of 6 base N1A, N1B, N2A, N2B, N3A, N3B, N4A, N4B, N5A, N5B, N6A, N6B, N7A or N7B polynucleotides. Production of IL-1beta was determined in 100 μl of culture supernatant using a commercial ELISA (BioSource, Camarillo, Calif., USA) after 48 hours of incubation. Results are expressed as the “fold” (x) increase in IL-1beta production by treated DC compared to control cells.

Human dendritic cells [4] = assay: Induction of IL-12 production by DC (ELISA); conditions: 100 μg, 48 hours
Protocol: as §1
DC were seeded in 1.0 ml at 1.0×10^5 cells/ml in 6-well flat-bottomed tissue culture plates for 48 hours with 100 μg of 6 base N1A, N1B, N2A, N2B, N3A, N3B, N4A, N4B, N5A, N5B, N6A, N6B, N7A or N7B polynucleotides. Production of IL-12 was determined in 100 μl of culture supernatant using a commercial ELISA (BioSource) after 48 hours of incubation. Results are expressed as the “fold” (x) increase in IL-12 production by treated DC compared to control cells.

Human dendritic cells [5] = assay: CD40 levels at the DC cell surface (flow cytometry); conditions: 100 μg, 48 hours
Protocol: as §1
DC from individuals B and C were seeded in 1.0 ml at 1.0×10^5 cells/ml in 6-well flat-bottomed tissue culture plates for 48 hours with 100 μg of 6 base N1A, N1B, N2A, N2B, N3A, N3B, N4A, N4B, N5A, N5B, N6A, N6B, N7A or N7B polynucleotides. The level of CD40 at the cell surface was determined after 48 hours of incubation by flow cytometry (FACSCalibur system) using a FITC-conjugated monoclonal antibody directed to CD40 and analyzed by CELLQuest Pro (all from Becton Dickinson). Results are expressed as the percentage of CD40^hi DC following treatment. The term “CD40^hi” refers to a population of cells identified by flow cytometry as having higher than baseline expression of CD40.

Human dendritic cells [6] = assay: CD80 levels at the DC cell surface (flow cytometry); conditions: 100 μg, 48 hours
Protocol: as §1
as §2, with “CD80” for “CD86”, “FITC-conjugated” for “PE-conjugated”, “CD80 (Serotec, Oxford, U.K.)” for “CD86 (Serotec)”, “CELLQuest.” for “CELLQuest Pro.”, “CD80^hi” for “CD86^hi”

Human dendritic cells [7] = assay: MHC-II levels at the DC cell surface (flow cytometry); conditions: DC from individual B; 100 μg, 48 hours
Protocol: as §1
as §2, with “individual” for “individuals”, “B” for “B and C”, “N3B,” for “N3B, N4A, N4B,”, “MHC II” for “CD86”, “FITC-conjugated” for “PE-conjugated”, “MHC II^hi” for “CD86^hi”

Human dendritic cells [8] = assay: Induction of IFN-gamma production by DC (ELISA); conditions: 100 μg, 48 hours
Protocol: as §1
DC were seeded in 1.0 ml at 1.0×10^5 cells/ml in 6-well flat-bottomed tissue culture plates for 48 hours with 100 μg of6 base N1A, N1B, N2A, N2B, N3A, N3B, N4A, N4B, N5A, N5B, N6A, N6B, N7A or N7B polynucleotides. Production of IFN-gamma was determined in 100 μl of culture supernatant using a commercial ELISA (BioSource) after 48 hours of incubation. Results are expressed as the “fold” (x) increase in IFN-gamma production by treated DC compared to control cells.

| Substance | Percentage of DC showing a FCS > 500 units and a SSC > 400 units (Human dendritic cells [1]; DC isolated from individual A) [%] | Percentage of DC showing a FCS > 500 units and a SSC > 400 units (Human dendritic cells [1]; DC isolated from individual B) [%] | Percentage of DC showing a FCS > 500 units and a SSC > 400 units (Human dendritic cells [1]; DC isolated from individual C) [%] | The percentage of CD86^hi DC following treatment (Human dendritic cells [2]; DC from individual B) [%] | The percentage of CD86^hi DC following treatment (Human dendritic cells [2]; DC from individual C) [%] | IL-1beta production by DC (fold increase compared to untreated DC) (Human dendritic cells [3]; DC isolated from individual A) [fold] | IL-1beta production by DC (fold increase compared to untreated DC) (Human dendritic cells [3]; DC isolated from individual B) [fold] | IL-1beta production by DC (fold increase compared to untreated DC) (Human dendritic cells [3]; DC isolated from individual C) [fold] | IL-12 production by DC (fold increase compared to untreated DC) (Human dendritic cells [4]; DC isolated from individual A) [fold] | IL-12 production by DC (fold increase compared to untreated DC) (Human dendritic cells [4]; DC isolated from individual B) [fold] | IL-12 production by DC (fold increase compared to untreated DC) (Human dendritic cells [4]; DC isolated from individual C) [fold] | The percentage of CD40^hi DC following treatment (Human dendritic cells [5]; DC from individual B) | The percentage of CD40^hi DC following treatment (Human dendritic cells [5]; DC from individual C) [%] | The percentage of CD80^hi DC following treatment (Human dendritic cells [6]; DC from individual B) [%] | The percentage of CD80^hi DC following treatment (Human dendritic cells [6]; DC from individual C) | The percentage of MHC-II^hi DC following treatment (Human dendritic cells [7]) [%] | IFN-gamma production by DC (fold increase compared to untreated DC) (Human dendritic cells [8]; DC isolated from individual A) [fold] | IFN-gamma production by DC (fold increase compared to untreated DC) (Human dendritic cells [8]; DC isolated from individual B) [fold] | IFN-gamma production by DC (fold increase compared to untreated DC) (Human dendritic cells [8]; DC isolated from individual C) [fold] |
| --- | --- | --- | --- | --- | --- | --- | --- | --- | --- | --- | --- | --- | --- | --- | --- | --- | --- | --- | --- |
| 5′ GTGTGT3′ [N1B] | 5 | 17 | 25 | 19 | 27 | 1.0 | 1.0 | 1.0 | 1.5 | 1.3 | 1.1 | 31** % | 18 | 11 | 13% | 7 | 0.9 | 1.0 | 1.0 |
| 5′GGCCGG3′ [N4A] (DNA, all phosphodiester, methylation of C not given here) | 4 |  | 19 |  | 23 | 0.9 |  | 1.0 | 1.2 |  | 1.0 |  | 16 | 11 | 21** % |  | 1.0 |  | 1.0 |
